Test results published in paper PMC9399411, “Identification of solamargine as a cisplatin sensitizer through phenotypical screening in cisplatin-resistant NSCLC organoids” (Frontiers in Pharmacology, 2022).

Key:
SMO (smoothened) [1] = molecular target: T1, SMO (smoothened) (Homo sapiens, UniProt Q99835); assay: BODIPY-cyclopamine competitive displacement on fixed U2OS-Smo cells (fluorescence imaging), […] solamargine; assay type: cell-based
T1 construct: human Smo protein stably overexpressed in U2OS cells
T1 sequence (Q99835 28-787): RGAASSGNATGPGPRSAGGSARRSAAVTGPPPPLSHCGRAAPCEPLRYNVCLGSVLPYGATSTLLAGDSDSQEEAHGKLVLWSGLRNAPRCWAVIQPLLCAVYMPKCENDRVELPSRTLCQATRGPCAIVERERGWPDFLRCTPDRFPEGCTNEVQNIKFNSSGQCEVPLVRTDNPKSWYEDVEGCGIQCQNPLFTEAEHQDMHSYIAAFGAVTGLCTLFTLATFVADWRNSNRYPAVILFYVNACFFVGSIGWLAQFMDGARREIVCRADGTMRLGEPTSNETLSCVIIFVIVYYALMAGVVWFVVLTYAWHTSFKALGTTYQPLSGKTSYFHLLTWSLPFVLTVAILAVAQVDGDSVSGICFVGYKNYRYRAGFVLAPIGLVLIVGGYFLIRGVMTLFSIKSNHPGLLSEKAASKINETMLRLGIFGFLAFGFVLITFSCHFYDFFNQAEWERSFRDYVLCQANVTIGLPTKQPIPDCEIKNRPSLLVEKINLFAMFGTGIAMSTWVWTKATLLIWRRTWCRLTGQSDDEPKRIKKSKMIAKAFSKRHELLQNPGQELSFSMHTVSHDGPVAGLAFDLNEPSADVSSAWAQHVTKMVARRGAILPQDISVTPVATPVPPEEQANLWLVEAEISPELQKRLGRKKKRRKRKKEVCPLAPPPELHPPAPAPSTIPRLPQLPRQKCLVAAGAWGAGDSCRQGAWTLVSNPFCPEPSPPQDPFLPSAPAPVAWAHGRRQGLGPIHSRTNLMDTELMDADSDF

SMO (smoothened) [2] = molecular target: T1, SMO (smoothened); assay: BODIPY-cyclopamine competitive displacement on fixed U2OS-Smo cells (fluorescence imaging), […] vismodegib; assay type: cell-based

| SMILES | BODIPY-cyclopamine competitive displacement on fixed U2OS-Smo cells (fluorescenc) (SMO (smoothened) [1]) | BODIPY-cyclopamine competitive displacement on fixed U2OS-Smo cells (fluorescenc) (SMO (smoothened) [2]) |
| --- | --- | --- |
| C[C@@H]1CC[C@@]2(NC1)O[C@H]1C[C@H]3[C@@H]4CC=C5C[C@@H](O[C@@H]6O[C@H](CO)[C@@H](O[C@@H]7O[C@@H](C)[C@H](O)[C@@H](O)[C@H]7O)[C@H](O)[C@H]6O[C@@H]6O[C@@H](C)[C@H](O)[C@@H](O)[C@H]6O)CC[C@]5(C)[C@H]4CC[C@]3(C)[C@H]1[C@@H]2C [Solamargine] | fluorescent signaling of BODIPY-cyclopamine wasalso suppressed by Solamargine (Figure 4C), suggesting the inhibitory binding of Solamargine to SMO | – |
| CS(=O)(=O)c1ccc(C(=O)Nc2ccc(Cl)c(-c3ccccn3)c2)c(Cl)c1 [vismodegib] | – | vismodegib can directly bind to SMO and competitively remove BODIPY-cyclopamine from SMO |
